Counter-ions that a name gives are not always drawn.

In one test the test system is progranulin. As to the kind of experiment: Progranulin induction cellular assay (ELISA of secreted mouse PGRN). Type of test: cell-based. The note with it: Mus musculus, BV-2, read-out: EC50 μM. The procedure, abridged: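 Mouse primary microglia, primary cortical neurons and BV-2 cells are used. BV-2 cells are plated in 96-well format the day before, with a 1 h attachment and 16 h incubation. Progranulin secreted into the medium is quantified by ELISA.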
Background: An ELISA detects its analyte on a solid surface through an enzyme-linked reagent.
By EC50 is commonly meant the midpoint of the concentration-response curve. Turning to `CC(=O)N[C@H]1CO[C@@H](C(=O)N2CCc3ccccc3[C@@H]2c2ccc(F)cc2)C[C@@H]1N` [Compound 5512, N-((3R,4S,6R)-4-amino-6-((S)-1-(4-fluorophenyl)-1,2,3,4-tetrahydroisoquinoline-2-carbonyl)tetrahydro-2H-pyran-3-yl)acetamide], the EC50 is 0.005 µM.

Still in this test, the particulars now being: progranulin induction assay; mouse pMG, primary cortical neurons and BV-2 cell lines named, cell type not given; ELISA-based readout; read-out: EC50.
In the case of `O=C([C@H]1OCCN[C@@H]1CF)N1CCc2ccccc2[C@@H]1c1ccc(F)cc1` [Compound 5501], the EC50 amounted to 3.86 µM.

As for `CCCO[C@H]1CO[C@@H](C(=O)N2CCc3ccccc3[C@@H]2c2ccc(F)cc2)C[C@@H]1N` [Compound 5502, ((2R,4S,5R)-4-amino-5-propoxytetrahydro-2H-pyran-2-yl)((S)-1-(4-fluorophenyl)-3,4-dihydroisoquinolin-2(1H)-yl)methanone], the EC50 was 0.001 µM.

With `CN[C@H]1C[C@H](C(=O)N2CCc3ccccc3[C@@H]2c2ccc(F)cc2)OC[C@@H]1OC` [Compound 5503, ((S)-1-(4-fluorophenyl)-3,4-dihydroisoquinolin-2(1H)-yl)((2R,4S,5R)-5-methoxy-4-(methylamino)tetrahydro-2H-pyran-2-yl)methanone], the EC50 is 0.005 µM.

Consider `CCN[C@H]1C[C@H](C(=O)N2CCc3ccccc3[C@@H]2c2ccc(F)cc2)OC[C@@H]1OC` [Compound 5504, ((2R,4S,5R)-4-(ethylamino)-5-methoxytetrahydro-2H-pyran-2-yl)((S)-1-(4-fluorophenyl)-3,4-dihydroisoquinolin-2(1H)-yl)methanone], for which the EC50 turned out to be 0.009 µM.

Regarding `C[C@@]1(C(=O)N2CCc3ccccc3[C@@H]2c2ccc(F)cc2)OCCNC[C@H]1O` [Compound 5505], the EC50 worked out at 0.41 µM.

For `C[C@]1(C(=O)N2CCc3ccccc3[C@@H]2c2ccc(F)cc2)OCCNC[C@@H]1O` [Compound 5506], the EC50 came out at 0.398 µM.

With `N[C@H]1C[C@H](C(=O)N2CCc3ccccc3[C@@H]2c2ccc(F)cc2)OC[C@@H]1OC(F)(F)F` [Compound 5507, ((2R,4S,5R)-4-amino-5-(trifluoromethoxy)tetrahydro-2H-pyran-2-yl)((S)-1-(4-fluorophenyl)-3,4-dihydroisoquinolin-2(1H)-yl)methanone], the EC50 came to 0.001 µM.

As for `CCN[C@H]1C[C@H](C(=O)N2CCc3ccccc3[C@@H]2c2ccc(F)cc2)OC[C@H]1O` [Compound 5508, ((2R,4S,5S)-4-(ethylamino)-5-hydroxytetrahydro-2H-pyran-2-yl)((S)-1-(4-fluorophenyl)-3,4-dihydroisoquinolin-2(1H)-yl)methanone], the EC50 turned out to be 0.03 µM.

As to `CCO[C@H]1CO[C@@H](C(=O)N2CCc3ccccc3[C@@H]2c2ccc(F)cc2)C[C@@H]1NC` [Compound 5509, ((2R,4S,5R)-5-ethoxy-4-(methylamino)tetrahydro-2H-pyran-2-yl)((S)-1-(4-fluorophenyl)-3,4-dihydroisoquinolin-2(1H)-yl)methanone], the concentration for a half-maximal effect (EC50) turned out to be 0.001 µM.

For the compound `CCN[C@H]1C[C@H](C(=O)N2CCc3ccccc3[C@@H]2c2ccc(F)cc2)OC[C@@H]1OCC` [Compound 5510, ((2R,4S,5R)-5-ethoxy-4-(ethylamino)tetrahydro-2H-pyran-2-yl)((S)-1-(4-fluorophenyl)-3,4-dihydroisoquinolin-2(1H)-yl)methanone], the EC50 was determined as 0.002 µM.

As to `CC(C)(C)O[C@H]1CO[C@@H](C(=O)N2CCc3ccccc3[C@@H]2c2ccc(F)cc2)C[C@@H]1N` [Compound 5511, ((2R,4S,5R)-4-amino-5-(tert-butoxy)tetrahydro-2H-pyran-2-yl)((S)-1-(4-fluorophenyl)-3,4-dihydroisoquinolin-2(1H)-yl)methanone], the EC50 was found to be 0.0002 µM.

For the compound `CCC(=O)N[C@H]1CO[C@@H](C(=O)N2CCc3ccccc3[C@@H]2c2ccc(F)cc2)C[C@@H]1N` [Compound 5513, N-((3R,4S,6R)-4-amino-6-((S)-1-(4-fluorophenyl)-1,2,3,4-tetrahydroisoquinoline-2-carbonyl)tetrahydro-2H-pyran-3-yl)propionamide], the EC50 turned out to be 0.03 µM.

For `N[C@H]1C[C@H](C(=O)N2CCc3ccccc3[C@@H]2c2ccc(F)cc2)OC[C@@H]1NC(=O)C(F)(F)F` [Compound 5514, N-((3R,4S,6R)-4-amino-6-((S)-1-(4-fluorophenyl)-1,2,3,4-tetrahydroisoquinoline-2-carbonyl)tetrahydro-2H-pyran-3-yl)-2,2,2-trifluoroacetamide], the EC50 was determined as 0.024 µM.

`CC(=O)N(C)[C@H]1CO[C@@H](C(=O)N2CCc3ccccc3[C@@H]2c2ccc(F)cc2)C[C@@H]1N` [Compound 5516, N-((3R,4S,6R)-4-amino-6-((S)-1-(4-fluorophenyl)-1,2,3,4-tetrahydroisoquinoline-2-carbonyl)tetrahydro-2H-pyran-3-yl)-N-methylacetamide]: the EC50 is 0.007 µM.

Regarding `CCC(=O)N(C)[C@H]1CO[C@@H](C(=O)N2CCc3ccccc3[C@@H]2c2ccc(F)cc2)C[C@@H]1N` [Compound 5517, N-((3R,4S,6R)-4-amino-6-((S)-1-(4-fluorophenyl)-1,2,3,4-tetrahydroisoquinoline-2-carbonyl)tetrahydro-2H-pyran-3-yl)-N-methylpropionamide], the EC50 amounted to 0.012 µM.

In the case of `C[C@H]1CO[C@@H](C(=O)N2CCc3ccccc3[C@@H]2c2ccc(F)cc2)C[C@@H]1N` [Compound 5518, ((2R,4S,5R)-4-amino-5-methyltetrahydro-2H-pyran-2-yl)((S)-1-(4-fluorophenyl)-3,4-dihydroisoquinolin-2(1H)-yl)methanone], the EC50 was determined as 0.015 µM.

`C[C@@H]1CO[C@@H](C(=O)N2CCc3ccccc3[C@@H]2c2ccc(F)cc2)C[C@@H]1N` [Compound 5519, ((2R,4S,5S)-4-amino-5-methyltetrahydro-2H-pyran-2-yl)((S)-1-(4-fluorophenyl)-3,4-dihydroisoquinolin-2(1H)-yl)methanone]: the EC50 was 0.041 µM.

As to `CS[C@H]1CO[C@@H](C(=O)N2CCc3ccccc3[C@@H]2c2ccc(F)cc2)C[C@@H]1N` [Compound 5520, ((2R,4S,5R)-4-amino-5-(methylthio)tetrahydro-2H-pyran-2-yl)((S)-1-(4-fluorophenyl)-3,4-dihydroisoquinolin-2(1H)-yl)methanone], the EC50 stood at 0.004 µM.

Consider `CCS[C@H]1CO[C@@H](C(=O)N2CCc3ccccc3[C@@H]2c2ccc(F)cc2)C[C@@H]1N` [Compound 5521, ((2R,4S,5R)-4-amino-5-(ethylthio)tetrahydro-2H-pyran-2-yl)((S)-1-(4-fluorophenyl)-3,4-dihydroisoquinolin-2(1H)-yl)methanone], for which the EC50 came out at 0.008 µM.

On to `CS(=O)(=O)[C@H]1CO[C@@H](C(=O)N2CCc3ccccc3[C@@H]2c2ccc(F)cc2)C[C@@H]1N` [Compound 5523, ((2R,4S,5R)-4-amino-5-(methylsulfonyl)tetrahydro-2H-pyran-2-yl)((S)-1-(4-fluorophenyl)-3,4-dihydroisoquinolin-2(1H)-yl)methanone], for which the EC50 stood at 0.016 µM.

For the compound `CCS(=O)(=O)[C@H]1CO[C@@H](C(=O)N2CCc3ccccc3[C@@H]2c2ccc(F)cc2)C[C@@H]1N` [Compound 5524, ((2R,4S,5R)-4-amino-5-(ethylsulfonyl)tetrahydro-2H-pyran-2-yl)((S)-1-(4-fluorophenyl)-3,4-dihydroisoquinolin-2(1H)-yl)methanone], the EC50 stood at 0.016 µM.

For `N[C@H]1C[C@H](C(=O)N2CCc3ccccc3[C@@H]2c2ccc(F)cc2)OC[C@@H]1OC1CCC1` [Compound 5525, ((2R,4S,5R)-4-amino-5-cyclobutoxytetrahydro-2H-pyran-2-yl)((S)-1-(4-fluorophenyl)-3,4-dihydroisoquinolin-2(1H)-yl)methanone], the EC50 amounted to 0.0003 µM.

`CC[C@H]1CO[C@@H](C(=O)N2CCc3ccccc3[C@@H]2c2ccc(F)cc2)C[C@@H]1N` [Compound 5526, ((2R,4S,5R)-4-amino-5-ethyltetrahydro-2H-pyran-2-yl)((S)-1-(4-fluorophenyl)-3,4-dihydroisoquinolin-2(1H)-yl)methanone]: the EC50 came out at 0.006 µM.

Take `N[C@H]1C[C@H](C(=O)N2CCc3ccccc3[C@@H]2c2ccc(F)cc2)OC[C@@H]1Oc1ccccc1` [Compound 5527, ((2R,4S,5R)-4-amino-5-phenoxytetrahydro-2H-pyran-2-yl)((S)-1-(4-fluorophenyl)-3,4-dihydroisoquinolin-2(1H)-yl)methanone]: the EC50 worked out at 0.274 µM.

Take `CN1C=N[C@H]2C[C@H](C(=O)N3CCc4ccccc4[C@@H]3c3ccc(F)cc3)OC[C@H]21` [Compound 5528, ((S)-1-(4-fluorophenyl)-3,4-dihydroisoquinolin-2(1H)-yl)((3aS,6R,7aS)-3-methyl-3,3a,4,6,7,7a-hexahydropyrano[3,4-d]imidazol-6-yl)methanone hydrochloride]: the EC50 is 0.168 µM.

Regarding `Cn1cnc2c1CO[C@@H](C(=O)N1CCc3ccccc3[C@@H]1c1ccc(F)cc1)C2` [Compound 5529, ((S)-1-(4-fluorophenyl)-3,4-dihydroisoquinolin-2(1H)-yl)((R)-3-methyl-3,4,6,7-tetrahydropyrano[3,4-d]imidazol-6-yl)methanone], the EC50 turned out to be 1.56 µM.

For the compound `N[C@H]1C[C@H](C(=O)N2CCc3ccccc3[C@@H]2c2ccc(F)cc2)OC[C@@H]1OC1CC1` [Compound 5530, ((2R,4S,5R)-4-amino-5-cyclopropoxytetrahydro-2H-pyran-2-yl)((S)-1-(4-fluorophenyl)-3,4-dihydroisoquinolin-2(1H)-yl)methanone], the EC50 worked out at 0.0003 µM.

For the compound `N[C@H]1C[C@H](C(=O)N2CCc3ccccc3[C@@H]2c2ccc(F)cc2)OC[C@@H]1OCc1ccccc1` [Compound 5531, ((2R,4S,5R)-4-amino-5-(benzyloxy)tetrahydro-2H-pyran-2-yl)((S)-1-(4-fluorophenyl)-3,4-dihydroisoquinolin-2(1H)-yl)methanone], the EC50 was found to be 0.088 µM.

On to `O=C1CN[C@H]2C[C@H](C(=O)N3CCc4ccccc4[C@@H]3c3ccc(F)cc3)OC[C@@H]2N1` [Compound 5532, (4aR,7R,8aS)-7-((S)-1-(4-fluorophenyl)-1,2,3,4-tetrahydroisoquinoline-2-carbonyl)hexahydro-2H-pyrano[3,4-b]pyrazin-3(4H)-one], for which the EC50 is 1.68 µM.

The values above are taken from patent US20230406843A1, “Progranulin Modulators and Methods of Using the Same” (ARKUDA THERAPEUTICS, priority 2020, published 2023).
